US6448266B1, “Substituted cyclobutylamine derivatives” (Daiichi Pharmaceutical Co., Ltd., priority 1997, dated 2002)
≈ marks a conversion by molar mass, not a printed value. Read-outs that look alike come from different tables or passages of the source.

Assays:
Test in all cases: Antibacterial activity (MIC), standard method of the Japan Society of Chemotherapy
Format in all cases: cell-based
S. maltophilia, IID-1275 = tested on: S. maltophilia, IID-1275
Description: (§1) The antibacterial activity of each compound of the present invention was measured in accordance with the standard method specified by the Japan Society of Chemotherapy, with the results shown in the following table as MIC values (μg/ml).

Ps. aeruginosa, 32104 = tested on: Ps. aeruginosa, 32104
Description: as §1

S. pneumoniae, J24 = tested on: S. pneumoniae, J24
Description: as §1

E. coli, NIHJ = tested on: E. coli, NIHJ
Description: as §1

Ser. marcescens, 10100 = tested on: Ser. marcescens, 10100
Description: as §1

S. aureus, 209P = tested on: S. aureus, 209P
Description: as §1

S. flexneli, 2A 5503 = tested on: S. flexneli, 2A 5503
Description: as §1

S. aureus, 870307 = tested on: S. aureus, 870307
Description: as §1

Pr. mirabilis, IFO-3849 = tested on: Pr. mirabilis, IFO-3849
Description: as §1

Pr. vulgaris, 08601 = tested on: Pr. vulgaris, 08601
Description: as §1

[1] = tested on: Str. faecalis, ATCC-19433
Description: as §1

S. epidermidis, 56500 = tested on: S. epidermidis, 56500
Description: as §1

Str. pyogenes, G-36 = tested on: Str. pyogenes, G-36
Description: as §1

Ps. aeruginasa, 32121 = tested on: Ps. aeruginasa, 32121
Description: as §1

[2] = Stenotrophomonas maltophilia, IID1275, read-out: MIC
[3] = Pseudomonas aeruginosa, read-out: MIC
[4] = Streptococcus pneumoniae, read-out: MIC
[5] = Escherichia coli, read-out: MIC
[6] = Serratia marcescens, read-out: MIC
[7] = Staphylococcus aureus, read-out: MIC
[8] = Proteus mirabilis, IFO3849, read-out: MIC
[9] = Proteus vulgaris, read-out: MIC
[10] = Enterococcus faecalis, ATCC19433, read-out: MIC
[11] = Staphylococcus epidermidis, read-out: MIC
[12] = Streptococcus pyogenes, G36, read-out: MIC

| Structure (SMILES) | MIC (S. maltophilia, IID-1275; [2]) [µg/mL] | MIC (Ps. aeruginosa, 32104; [3]) [µg/mL] | MIC (S. pneumoniae, J24; [4]) [µg/mL] | MIC (E. coli, NIHJ; [5]) [µg/mL] | MIC (Ser. marcescens, 10100; [6]) [µg/mL] | MIC (S. aureus, 209P; [7]) [µg/mL] | MIC (S. flexneli, 2A 5503) [µg/mL] | MIC (S. aureus, 870307; [7]) [µg/mL] | MIC (Pr. mirabilis, IFO-3849; [8]) [µg/mL] | MIC (Pr. vulgaris, 08601; [9]) [µg/mL] | MIC [1, 10] [µg/mL] | MIC (S. epidermidis, 56500; [11]) [µg/mL] | MIC (Str. pyogenes, G-36; [12]) [µg/mL] | MIC (Ps. aeruginasa, 32121; read-out: MIC) [µg/mL] | MIC (S. maltophilia, IID-1275) [µg/mL] | MIC (Ps. aeruginosa, 32104) [µg/mL] | MIC (S. pneumoniae, J24) | MIC (E. coli, NIHJ) | MIC (Ser. marcescens, 10100) [µg/mL] | MIC (S. aureus, 209P) | further results |
| --- | --- | --- | --- | --- | --- | --- | --- | --- | --- | --- | --- | --- | --- | --- | --- | --- | --- | --- | --- | --- | --- |
| COc1c(N2CCC(C3(N)CC(F)C3)C2)c(F)cc2c(=O)c(C(=O)O)cn([C@@H]3C[C@@H]3F)c12 (stereo partly drawn) [Inventive Example 6, 7-[3-(3-Amino-1-fluoro-cyclobutan-3-yl)-pyrrolidin-1-yl]-6-fluoro-1-[2-(S)-fluoro-1-(R)-cyclopropyl]-8-methoxy-1,4-dihydro-4-oxoquinoline-3-carboxylic acid] | 0.2 (≈ 0.443 µM) | 0.39 (≈ 0.864 µM) | ≤ 0.003 | ≤ 0.003 | 0.1 (≈ 0.222 µM) | ≤ 0.003 | 0.013 (≈ 0.0288 µM) | 0.025 (≈ 0.0554 µM) | 0.05 (≈ 0.111 µM) | 0.025 (≈ 0.0554 µM) | 0.025 (≈ 0.0554 µM) | 0.006 (≈ 0.0133 µM) | 0.006 (≈ 0.0133 µM) | 0.2 (≈ 0.443 µM) | – | – | – | – | – | – | – |
| COc1c(N2CCC(C3(N)CC(F)(F)C3)C2)c(F)cc2c(=O)c(C(=O)O)cn([C@@H]3C[C@@H]3F)c12 (stereo partly drawn) [Inventive Example 3, 7-[3-(3-Amino-1,1-difluorocyclobutan-3-yl)pyrrolidin-1-yl]-6-fluoro-1-[2-(S)-fluoro-1-(R)-cyclopropyl]-8-methoxy-1,4-dihydro-4-oxoquinoline-3-carboxylic acid] | 0.2 (≈ 0.426 µM) | 0.78 (≈ 1.66 µM) | 0.006 (≈ 0.0128 µM) | 0.013 (≈ 0.0277 µM) | 0.39 (≈ 0.831 µM) | ≤ 0.003 | 0.025 (≈ 0.0533 µM) | 0.025 (≈ 0.0533 µM) | 0.1 (≈ 0.213 µM) | 0.025 (≈ 0.0533 µM) | 0.025 (≈ 0.0533 µM) | 0.013 (≈ 0.0277 µM) | 0.006 (≈ 0.0128 µM) | 0.39 (≈ 0.831 µM) | – | – | – | – | – | – | – |
| Cc1c(N2CCC(C3(N)CC(F)(F)C3)C2)c(F)c(N)c2c(=O)c(C(=O)O)cn([C@@H]3C[C@@H]3F)c12 (stereo partly drawn) [Inventive Example 5, 5-Amino-7-[3-(3-amino-1,1-difluorocyclobutan-3-yl)pyrrolidin-1-yl]-6-fluoro-1-[2-(S)-fluoro-1-(R)-cyclopropyl]-8-methyl-1,4-dihydro-4-oxoguinoline-3-carboxylic acid] | – | – | – | – | – | – | – | – | – | – | – | – | – | – | 0.10 (≈ 0.213 µM) | 0.39 (≈ 0.833 µM) | ≦0.003 μg/ml | 0.006 µg/mL (≈ 0.0128 µM) | 0.20 (≈ 0.427 µM) | ≦0.003 μg/ml | MIC (S. flexneli, 2A 5503; S. flexneli, 2A 5503): 0.006 µg/mL (≈ 0.0128 µM); MIC (S. aureus, 870307): 0.025 µg/mL (≈ 0.0534 µM); MIC (Pr. mirabilis, IFO-3849): 0.05 µg/mL (≈ 0.107 µM); MIC (Pr. vulgaris, 08601): 0.05 µg/mL (≈ 0.107 µM); MIC [1]: 0.025 µg/mL (≈ 0.0534 µM); MIC (S. epidermidis, 56500): ≦0.003 μg/ml; MIC (Str. pyogenes, G-36): 0.006 µg/mL (≈ 0.0128 µM); MIC (Ps. aeruginasa, 32121): 0.20 µg/mL (≈ 0.427 µM) |
| Nc1c(F)c(N2CCC(C3(N)CC(F)C3)C2)c(F)c2c1c(=O)c(C(=O)O)cn2[C@@H]1C[C@@H]1F (stereo partly drawn) [Inventive Example 7, 5-Amino-7-[3-(3-amino-1-fluoro-cyclobutan-3-yl)pyrrolidin-1-yl]-6,8-difluoro-1-[2-(S)-fluoro-1-(R)-cyclopropyl]-1,4-dihydro-4-oxoquinoline-3-carboxylic acid] | 0.05 (≈ 0.11 µM) | 0.1 (≈ 0.22 µM) | ≤ 0.003 | ≤ 0.003 | 0.05 (≈ 0.11 µM) | ≤ 0.003 | ≤ 0.003 | 0.006 (≈ 0.0132 µM) | 0.025 (≈ 0.055 µM) | 0.025 (≈ 0.055 µM) | 0.025 (≈ 0.055 µM) | ≤ 0.003 | ≤ 0.003 | 0.05 (≈ 0.11 µM) | – | – | – | – | – | – | – |
| Cc1c(N2CCC(C3(N)CC(F)C3)C2)c(F)c(N)c2c(=O)c(C(=O)O)cn([C@@H]3C[C@@H]3F)c12 (stereo partly drawn) [Inventive Example 1, 5-Amino-7-[3-(3-amino-1-fluorocyclobutan-3-yl)pyrrolidin-1-yl]-6-fluoro-1-[2-(S)-fluoro-1-(R)-cyclopropyl]-8-methyl-1,4-dihydro-4-oxoguinoline-3-carboxylic acid] | – | – | – | – | – | – | – | – | – | – | – | – | – | – | 0.05 (≈ 0.111 µM) | 0.20 (≈ 0.444 µM) | ≦0.003 μg/ml | ≦0.003 μg/ml | 0.10 (≈ 0.222 µM) | ≦0.003 μg/ml | MIC (S. flexneli, 2A 5503; S. flexneli, 2A 5503): ≦0.003 μg/ml; MIC (S. aureus, 870307): 0.013 µg/mL (≈ 0.0289 µM); MIC (Pr. mirabilis, IFO-3849): 0.025 µg/mL (≈ 0.0555 µM); MIC (Pr. vulgaris, 08601): 0.013 µg/mL (≈ 0.0289 µM); MIC [1]: 0.025 µg/mL (≈ 0.0555 µM); MIC (S. epidermidis, 56500): ≦0.003 μg/ml; MIC (Str. pyogenes, G-36): ≦0.003 μg/ml; MIC (Ps. aeruginasa, 32121): 0.05 µg/mL (≈ 0.111 µM) |
